Source: patent publication US20110124579A1, “SIALIC ACID TO SUPPORT SALIVATION” (NESTEC S.A., priority 2008, published 2011)
“Also recorded” adds a separate entry of the source.

Test system: rats
Assay: Pilocarpine stimulated salivation (cholinergic neuronal activity) in young adult and aged rats after 3 weeks on diet
Assay type: in vivo, rat
Protocol: Young adult (3 months) and aged rats (24 months) were fed a semisynthetic diet containing sialic acid at a concentration of 0.15 g/100 g diet (control) or a semi-synthetic diet additionally supplemented with sialic acid to a final concentration of 0.9 g/100 g diet (Sia).
After 3 weeks on the experimental diet neuronal activity of cholinergic neurons was assessed. To this end rats were injected pilocarpine (IP, 1.5 mg/kg body weight for 24 months rats and 2 mg/kg body weight for 3 months rats). Pilocarpine is a muscarinic agonist acting on cholinergic neurons, which leads to salivation. Thus stimulated saliva collection was timed with a chronometer. After about 7 minutes collection was stopped.

CC(=O)N[C@H]1[C@H]([C@H](O)[C@H](O)CO)OC(O)(C(=O)O)C[C@@H]1O (some centres unmarked) [sialic acid, N-acetylneuraminic acid]
stimulated salivation / neuronal activity of cholinergic neurons (stimulated saliva production per time) (aged rats (24 months), diet supplemented with sialic acid to 0.9 g/100 g diet vs control 0.15 g/100 g, 3 weeks, pilocarpine IP 1.5 mg/kg, 1.5 mg/kg): increased stimulated salivation equal to the salivation found in young animals; also recorded: significantly increased neuronal activity; also recorded: reached similar stimulated salivation values as the young animals; also recorded: proper salivation was re-established in aged animals | Pilocarpine stimulated salivation, aged vs young adult rats (young adult (3 m) and old age (24 m) rats, NeuAc enriched diet vs control diet for 3 weeks, FIG. 2, N=8-10): increased stimulated salivation in aged rats much more efficiently than in young adult rats
